In ChEMBL document CHEMBL1201862, “PubChem BioAssay data set” (2004):
Calls of active or inactive are those of the source.

Columns and labels:
Protein RecA = biological target: T1, Protein RecA (Mycobacterium tuberculosis, UniProt P9WHJ3); test: Fluorescence Cell-Free Homogeneous Dose Retest to Identify Inhibitors of RecA-Intein Splicing Activity. [Related pubchem assays (depositor defined):AID2097, AID2223, AID489010, AID492950]; type: functional
T1 sequence (P9WHJ3 whole entry): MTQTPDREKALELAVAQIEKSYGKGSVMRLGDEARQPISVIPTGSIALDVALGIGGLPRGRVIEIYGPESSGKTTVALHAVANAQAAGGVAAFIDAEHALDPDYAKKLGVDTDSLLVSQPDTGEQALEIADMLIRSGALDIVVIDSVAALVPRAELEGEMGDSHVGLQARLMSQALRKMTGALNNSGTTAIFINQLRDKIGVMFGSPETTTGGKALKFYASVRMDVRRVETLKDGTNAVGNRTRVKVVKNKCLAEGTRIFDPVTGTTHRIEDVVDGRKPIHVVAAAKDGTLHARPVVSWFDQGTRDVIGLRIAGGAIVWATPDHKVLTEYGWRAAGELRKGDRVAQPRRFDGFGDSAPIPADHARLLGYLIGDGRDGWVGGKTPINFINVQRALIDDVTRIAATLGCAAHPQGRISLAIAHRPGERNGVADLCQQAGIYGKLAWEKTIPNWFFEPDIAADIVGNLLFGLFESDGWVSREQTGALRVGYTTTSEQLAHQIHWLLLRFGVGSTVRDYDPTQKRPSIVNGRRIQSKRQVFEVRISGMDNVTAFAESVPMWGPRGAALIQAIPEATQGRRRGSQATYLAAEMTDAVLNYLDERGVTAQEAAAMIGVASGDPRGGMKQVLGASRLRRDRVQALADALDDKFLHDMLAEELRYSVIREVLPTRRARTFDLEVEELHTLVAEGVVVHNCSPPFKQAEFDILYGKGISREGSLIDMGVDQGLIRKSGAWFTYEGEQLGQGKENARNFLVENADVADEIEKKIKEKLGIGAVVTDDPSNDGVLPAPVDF

Vero = test: viability of Vero cells under compound – cytotoxicity control for flavivirus capping enzyme inhibitors (AID 588742); type: functional; conditions: Chlorocebus sabaeus
[1] = non-specific 3'UTR reporter inhibition in Clone20-Shn3RL – cell-based, Renilla luciferase, cherry-picked, counter-screen for Shn3 inhibitor project, dose response (AID 624133); type: functional
[2] = reduction of Shn3 3'UTR-driven luciferase in osteoblasts – cell-based, Clone20 osteoblasts, firefly luciferase, cherry-picked, dose response (AID 624132); type: functional;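 also: firefly luciferase luminescence from reporter carrying the Shn3 3'UTR in osteoblasts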
Genome polyprotein = Genome polyprotein (dengue virus type 2, UniProt P29990); test: flavivirus cap methylation enzyme inhibition – biochemical, confirmation dose response, primary screen (AID 588689); type: functional
[3] = biological target: T2, Replicative DNA helicase DnaB (Mycobacterium tuberculosis, UniProt P9WMR3); test: DnaB intein splicing inhibitors, dose response, biochemical, cell-free fluorescence (AID 449749); type: functional
T2 sequence (P9WMR3 whole entry): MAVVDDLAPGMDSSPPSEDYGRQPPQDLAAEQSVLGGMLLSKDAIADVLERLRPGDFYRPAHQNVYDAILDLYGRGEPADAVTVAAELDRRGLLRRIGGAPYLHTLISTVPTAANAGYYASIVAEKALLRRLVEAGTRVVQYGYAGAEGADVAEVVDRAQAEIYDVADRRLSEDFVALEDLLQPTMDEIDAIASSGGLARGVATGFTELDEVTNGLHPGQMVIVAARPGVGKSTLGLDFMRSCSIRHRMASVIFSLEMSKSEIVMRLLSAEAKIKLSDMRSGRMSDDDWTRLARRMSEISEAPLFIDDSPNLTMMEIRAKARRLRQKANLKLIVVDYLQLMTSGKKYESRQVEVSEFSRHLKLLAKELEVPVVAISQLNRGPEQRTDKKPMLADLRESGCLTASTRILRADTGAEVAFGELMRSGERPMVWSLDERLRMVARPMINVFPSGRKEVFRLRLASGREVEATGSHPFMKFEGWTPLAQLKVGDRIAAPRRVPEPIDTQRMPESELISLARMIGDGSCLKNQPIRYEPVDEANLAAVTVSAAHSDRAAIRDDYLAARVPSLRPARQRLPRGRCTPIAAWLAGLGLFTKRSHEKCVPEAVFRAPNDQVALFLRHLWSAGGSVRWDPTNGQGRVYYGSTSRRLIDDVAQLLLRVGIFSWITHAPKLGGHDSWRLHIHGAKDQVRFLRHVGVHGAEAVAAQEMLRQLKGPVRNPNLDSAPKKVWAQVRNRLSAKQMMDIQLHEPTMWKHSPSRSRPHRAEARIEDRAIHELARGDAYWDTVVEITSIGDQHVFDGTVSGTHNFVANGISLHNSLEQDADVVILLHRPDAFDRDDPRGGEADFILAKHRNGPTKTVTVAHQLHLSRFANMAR

[4] = biological target: Potassium voltage-gated channel subfamily KQT member 2 (Rattus norvegicus, UniProt O88943, W236L); test: potentiation of rat KCNQ2 current – cell-based, automated electrophysiology, mechanism study for KCNQ2 potentiator project, dose response (AID 2603); type: functional
[5] = biological target: T3, High affinity choline transporter 1 (Homo sapiens, UniProt Q9GZV3); test: human choline transporter blockers, potency – cell-based, 5-point CRC, membrane potential dye, dose response (AID 504840); type: functional
T3 sequence (Q9GZV3 whole entry): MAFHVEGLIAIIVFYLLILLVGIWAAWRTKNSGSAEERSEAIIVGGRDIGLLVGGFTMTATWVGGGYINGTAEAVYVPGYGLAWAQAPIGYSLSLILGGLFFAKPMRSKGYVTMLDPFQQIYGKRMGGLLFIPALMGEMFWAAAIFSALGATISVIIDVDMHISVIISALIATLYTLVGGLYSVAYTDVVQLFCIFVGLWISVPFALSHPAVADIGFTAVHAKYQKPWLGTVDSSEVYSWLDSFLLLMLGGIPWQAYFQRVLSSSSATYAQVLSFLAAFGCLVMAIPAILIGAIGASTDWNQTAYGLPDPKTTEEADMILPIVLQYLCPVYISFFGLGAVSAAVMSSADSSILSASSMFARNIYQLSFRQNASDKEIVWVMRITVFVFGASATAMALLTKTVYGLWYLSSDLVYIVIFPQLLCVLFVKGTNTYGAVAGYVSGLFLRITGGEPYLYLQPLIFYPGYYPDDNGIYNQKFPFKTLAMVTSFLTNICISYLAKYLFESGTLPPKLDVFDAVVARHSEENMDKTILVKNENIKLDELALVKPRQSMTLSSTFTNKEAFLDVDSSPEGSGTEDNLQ

[6] = biological target: ATP-binding cassette sub-family B member 6 (Homo sapiens, UniProt Q9NP58); test: ABCB6 transporter inhibitors, porphyrin accumulation, dose response, flow cytometry, K562-ABCB6 cells, cherry pick 02 (AID 624487); type: functional; conditions: read-out: EC50_MICROM
[7] = biological target: 5-hydroxytryptamine receptor 1E (Homo sapiens, UniProt P28566); test: Counterscreen assay for S1P3 antagonists: Dose response cell-based high throughput screening assay to identify antagonists of the 5-Hydroxytryptamine Receptor Subtype 1E (5HT1E). [Related pubchem assays: 1429, 485 ]; type: functional
[8] = biological target: Sphingosine 1-phosphate receptor 3 (Homo sapiens, UniProt Q99500); test: Dose response cell-based high throughput screening assay for antagonists of the Sphingosine 1-Phosphate Receptor 3 (S1P3). [Related pubchem assays: 1429, 485 ]; type: functional
[9] = biological target: T4, Apoptotic protease-activating factor 1 (Homo sapiens, UniProt O14727); type: functional
T4 sequence (O14727 whole entry): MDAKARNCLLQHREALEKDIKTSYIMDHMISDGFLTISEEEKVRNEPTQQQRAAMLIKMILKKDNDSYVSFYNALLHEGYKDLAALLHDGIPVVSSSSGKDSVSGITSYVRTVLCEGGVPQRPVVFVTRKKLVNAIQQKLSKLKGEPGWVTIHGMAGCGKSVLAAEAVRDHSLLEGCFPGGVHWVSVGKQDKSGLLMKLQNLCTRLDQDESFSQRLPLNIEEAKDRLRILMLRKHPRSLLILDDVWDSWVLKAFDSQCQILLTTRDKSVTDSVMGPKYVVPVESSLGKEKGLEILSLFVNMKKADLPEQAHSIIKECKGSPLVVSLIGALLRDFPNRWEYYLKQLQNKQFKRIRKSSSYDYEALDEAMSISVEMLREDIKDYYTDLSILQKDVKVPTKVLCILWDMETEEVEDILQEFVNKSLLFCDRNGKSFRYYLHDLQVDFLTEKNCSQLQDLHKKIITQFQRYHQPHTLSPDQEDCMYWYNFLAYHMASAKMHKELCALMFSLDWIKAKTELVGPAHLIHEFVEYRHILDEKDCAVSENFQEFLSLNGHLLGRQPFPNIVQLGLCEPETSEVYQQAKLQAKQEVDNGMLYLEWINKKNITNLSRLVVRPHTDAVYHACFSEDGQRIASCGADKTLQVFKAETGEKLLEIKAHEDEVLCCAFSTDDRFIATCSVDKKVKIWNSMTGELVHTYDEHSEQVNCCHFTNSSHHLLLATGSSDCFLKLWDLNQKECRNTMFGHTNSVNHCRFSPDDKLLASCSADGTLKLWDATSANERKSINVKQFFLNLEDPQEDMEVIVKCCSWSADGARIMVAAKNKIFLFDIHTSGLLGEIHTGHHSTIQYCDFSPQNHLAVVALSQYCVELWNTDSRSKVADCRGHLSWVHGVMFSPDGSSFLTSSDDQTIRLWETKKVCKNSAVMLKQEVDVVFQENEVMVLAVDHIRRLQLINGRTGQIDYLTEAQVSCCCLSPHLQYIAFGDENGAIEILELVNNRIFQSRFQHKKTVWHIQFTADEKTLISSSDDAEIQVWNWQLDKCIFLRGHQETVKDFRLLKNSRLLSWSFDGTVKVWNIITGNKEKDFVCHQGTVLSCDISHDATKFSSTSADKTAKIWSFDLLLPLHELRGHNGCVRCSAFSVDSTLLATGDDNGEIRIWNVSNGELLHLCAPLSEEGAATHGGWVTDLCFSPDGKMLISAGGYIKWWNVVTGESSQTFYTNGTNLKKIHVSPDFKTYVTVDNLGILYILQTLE

[10] = biological target: T5, Heat shock factor protein 1 (Mus musculus, UniProt P38532); test: decrease of HSF1-responsive luciferase luminescence – cell-based, NIH3T3, dose retest, confirmation (AID 2382); type: functional;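 also: NIH3T3 fibroblasts with HSF1-driven luciferase reporter stressed by proteasome inhibitor MG132; luminescence from HSF1-driven luciferase expression after 8 hours of MG132 stress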
T5 sequence (P38532 whole entry): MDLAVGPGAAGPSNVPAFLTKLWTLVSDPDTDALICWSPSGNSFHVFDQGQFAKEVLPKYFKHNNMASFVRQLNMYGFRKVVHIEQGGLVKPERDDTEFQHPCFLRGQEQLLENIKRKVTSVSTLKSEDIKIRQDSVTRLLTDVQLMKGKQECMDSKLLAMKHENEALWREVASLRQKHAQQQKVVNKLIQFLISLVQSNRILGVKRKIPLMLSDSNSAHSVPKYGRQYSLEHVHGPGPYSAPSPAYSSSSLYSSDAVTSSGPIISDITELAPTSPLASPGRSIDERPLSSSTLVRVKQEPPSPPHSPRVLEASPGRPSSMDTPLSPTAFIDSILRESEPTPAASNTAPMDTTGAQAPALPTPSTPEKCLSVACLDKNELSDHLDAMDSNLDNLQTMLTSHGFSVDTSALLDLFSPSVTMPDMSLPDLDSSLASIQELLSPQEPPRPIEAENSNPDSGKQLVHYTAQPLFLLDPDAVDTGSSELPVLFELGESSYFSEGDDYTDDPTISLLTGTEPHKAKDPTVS

BJ [11] = test: BJ-TERT-LT-ST fibroblast viability loss – cell-based, RAS-independent, luminescence, dose response (AID 1935); type: functional; conditions: Homo sapiens;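 also: BJ fibroblasts immortalized with TERT plus LT and ST oncogenes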
[12] = DRD fibroblast viability loss – cell-based, non-viral oncogenic, luminescence, dose response (AID 1934); type: functional; conditions: Homo sapiens
INS1 = test: INS-1E survival protection against cytokine death – cell-based, luminescence, retest, dose response (AID 449756); type: functional; conditions: Rattus norvegicus;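 also: cell death triggered by IL-1 beta plus TNF-alpha plus IFN-gamma mixture; protective hits raise ATP signal compared with cytokine alone wells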
BJ [13] = test: cells; type: functional, cell-based; conditions: Homo sapiens
[14] = biological target: Mothers against decapentaplegic homolog 3 (Homo sapiens, UniProt P84022); test: inhibitors of SMAD-driven TGF-beta signaling – dose response (AID 715); type: functional
BJ [15] = test: BJ-TERT fibroblast viability loss – cell-based, RAS-independent, luminescence, dose response (AID 1933); type: functional; conditions: Homo sapiens
[16] = viability of HCT116 lacking mutant beta-catenin – cell-based, human colon tumor, dose response (AID 1045); type: functional;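 also: HCT116 colon tumor cells with beta catenin knocked out; cells exposed to compound for 60 hours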
[17] = viability of PTEN-deleted HCT116 cells – cell-based, HCT116 PTEN knockout, dose response (AID 1047); type: functional;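 also: HCT116 colon tumor cells with PTEN knocked out; cells exposed to compound for 60 hours before readout; potency for loss of cell viability measured by luminescence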
BJ [18] = test: growth inhibition of engineered Ras-driven BJ cells – cell-based, alamar blue fluorescence, cherrypicked samples, dose response (AID 2631); type: functional; conditions: Homo sapiens;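 also: confirmatory dose-response assay in RAS-dependent BJ fibroblasts engineered with TERT, LT and ST, with cytotoxicity read by fluorescence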

Sequence of Genome polyprotein (P29990 2492-3391 limits assumed): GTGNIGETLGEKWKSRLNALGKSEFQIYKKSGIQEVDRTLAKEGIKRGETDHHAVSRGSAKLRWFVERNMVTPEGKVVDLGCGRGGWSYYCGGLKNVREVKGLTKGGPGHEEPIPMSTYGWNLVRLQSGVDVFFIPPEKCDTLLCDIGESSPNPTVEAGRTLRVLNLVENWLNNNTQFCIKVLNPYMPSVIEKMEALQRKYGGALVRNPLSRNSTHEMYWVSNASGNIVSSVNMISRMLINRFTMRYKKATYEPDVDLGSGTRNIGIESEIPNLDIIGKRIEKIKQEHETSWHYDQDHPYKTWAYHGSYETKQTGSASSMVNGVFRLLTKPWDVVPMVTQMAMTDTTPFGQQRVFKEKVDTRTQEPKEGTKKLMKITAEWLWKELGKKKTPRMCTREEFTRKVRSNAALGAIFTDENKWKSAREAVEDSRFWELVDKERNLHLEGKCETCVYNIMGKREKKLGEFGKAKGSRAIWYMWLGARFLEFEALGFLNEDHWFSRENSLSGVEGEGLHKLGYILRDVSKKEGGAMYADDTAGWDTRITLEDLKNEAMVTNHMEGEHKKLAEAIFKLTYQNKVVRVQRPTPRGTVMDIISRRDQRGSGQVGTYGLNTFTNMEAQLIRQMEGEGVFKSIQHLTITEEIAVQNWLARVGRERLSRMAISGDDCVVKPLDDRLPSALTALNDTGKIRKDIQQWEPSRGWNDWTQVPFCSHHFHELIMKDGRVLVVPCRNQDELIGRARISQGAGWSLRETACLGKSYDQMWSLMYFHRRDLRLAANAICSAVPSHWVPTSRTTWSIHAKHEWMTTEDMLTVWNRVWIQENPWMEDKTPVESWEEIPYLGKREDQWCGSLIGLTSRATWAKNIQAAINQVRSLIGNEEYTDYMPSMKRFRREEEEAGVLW
Sequence of ATP-binding cassette sub-family B member 6 (Q9NP58 whole entry): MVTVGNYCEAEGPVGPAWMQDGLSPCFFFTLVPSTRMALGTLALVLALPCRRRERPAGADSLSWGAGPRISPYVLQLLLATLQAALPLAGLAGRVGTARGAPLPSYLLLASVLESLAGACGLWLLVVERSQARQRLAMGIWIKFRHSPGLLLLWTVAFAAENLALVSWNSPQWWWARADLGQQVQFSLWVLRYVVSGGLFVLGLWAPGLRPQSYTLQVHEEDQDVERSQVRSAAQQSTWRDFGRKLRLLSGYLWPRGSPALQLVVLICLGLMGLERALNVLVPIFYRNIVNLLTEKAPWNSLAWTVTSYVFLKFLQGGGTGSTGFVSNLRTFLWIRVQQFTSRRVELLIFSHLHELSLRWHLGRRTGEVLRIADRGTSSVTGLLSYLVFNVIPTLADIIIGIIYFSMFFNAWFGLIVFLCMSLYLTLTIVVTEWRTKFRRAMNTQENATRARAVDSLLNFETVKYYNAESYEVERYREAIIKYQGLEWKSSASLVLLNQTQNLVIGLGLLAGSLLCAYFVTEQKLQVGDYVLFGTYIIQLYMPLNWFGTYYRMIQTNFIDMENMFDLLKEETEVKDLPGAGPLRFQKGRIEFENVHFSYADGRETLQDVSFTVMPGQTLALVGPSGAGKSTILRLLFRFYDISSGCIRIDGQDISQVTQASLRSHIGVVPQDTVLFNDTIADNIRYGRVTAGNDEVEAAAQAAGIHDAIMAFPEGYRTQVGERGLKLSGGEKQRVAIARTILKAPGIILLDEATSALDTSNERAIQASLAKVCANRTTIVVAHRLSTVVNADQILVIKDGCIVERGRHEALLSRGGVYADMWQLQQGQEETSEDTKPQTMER
Sequence of Sphingosine 1-phosphate receptor 3 (Q99500 whole entry): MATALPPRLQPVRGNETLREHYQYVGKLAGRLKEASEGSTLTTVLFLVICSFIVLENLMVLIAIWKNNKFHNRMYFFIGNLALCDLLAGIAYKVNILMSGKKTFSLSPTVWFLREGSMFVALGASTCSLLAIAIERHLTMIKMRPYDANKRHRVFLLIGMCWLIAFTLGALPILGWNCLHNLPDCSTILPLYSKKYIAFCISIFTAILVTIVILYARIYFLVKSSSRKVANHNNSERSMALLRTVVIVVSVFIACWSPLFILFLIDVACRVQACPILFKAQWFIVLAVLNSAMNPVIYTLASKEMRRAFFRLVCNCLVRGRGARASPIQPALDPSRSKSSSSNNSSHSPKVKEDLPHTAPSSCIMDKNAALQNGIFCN
Sequence of Mothers against decapentaplegic homolog 3 (P84022 whole entry): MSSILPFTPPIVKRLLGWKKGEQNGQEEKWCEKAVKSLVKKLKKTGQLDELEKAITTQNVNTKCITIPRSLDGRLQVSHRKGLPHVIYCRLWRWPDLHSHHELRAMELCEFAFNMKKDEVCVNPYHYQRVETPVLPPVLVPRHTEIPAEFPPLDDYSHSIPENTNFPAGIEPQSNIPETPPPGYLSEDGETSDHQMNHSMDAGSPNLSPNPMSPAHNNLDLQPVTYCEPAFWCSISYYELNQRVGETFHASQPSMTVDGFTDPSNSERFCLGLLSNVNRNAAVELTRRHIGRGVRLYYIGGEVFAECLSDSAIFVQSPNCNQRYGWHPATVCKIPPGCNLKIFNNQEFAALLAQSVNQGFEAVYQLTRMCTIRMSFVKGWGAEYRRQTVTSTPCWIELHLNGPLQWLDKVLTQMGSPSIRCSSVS
Sequence of Potassium voltage-gated channel subfamily KQT member 2 (O88943 whole entry W236L): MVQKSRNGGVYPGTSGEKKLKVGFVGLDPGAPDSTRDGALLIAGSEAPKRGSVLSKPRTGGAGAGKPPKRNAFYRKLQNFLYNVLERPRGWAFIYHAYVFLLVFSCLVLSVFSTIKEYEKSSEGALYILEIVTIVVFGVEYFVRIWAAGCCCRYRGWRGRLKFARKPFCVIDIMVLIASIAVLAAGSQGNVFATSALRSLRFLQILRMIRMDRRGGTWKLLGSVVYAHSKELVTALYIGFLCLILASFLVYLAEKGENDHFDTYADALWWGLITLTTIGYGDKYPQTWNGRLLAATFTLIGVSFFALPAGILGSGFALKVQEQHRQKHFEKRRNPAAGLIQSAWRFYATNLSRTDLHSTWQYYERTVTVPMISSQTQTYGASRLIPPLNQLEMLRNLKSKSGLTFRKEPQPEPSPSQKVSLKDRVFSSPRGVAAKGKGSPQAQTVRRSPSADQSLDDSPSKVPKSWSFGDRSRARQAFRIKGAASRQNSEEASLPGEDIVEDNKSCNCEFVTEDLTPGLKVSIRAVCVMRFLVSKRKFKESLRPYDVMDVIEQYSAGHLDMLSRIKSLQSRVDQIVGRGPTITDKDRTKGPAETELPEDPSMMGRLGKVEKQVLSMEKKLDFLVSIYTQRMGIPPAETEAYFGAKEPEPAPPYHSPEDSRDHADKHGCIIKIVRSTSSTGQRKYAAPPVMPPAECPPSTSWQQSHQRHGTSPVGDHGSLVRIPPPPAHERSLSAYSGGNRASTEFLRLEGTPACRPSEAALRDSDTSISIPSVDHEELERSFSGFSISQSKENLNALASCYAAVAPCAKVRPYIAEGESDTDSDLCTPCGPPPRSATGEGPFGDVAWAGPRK
Sequence of 5-hydroxytryptamine receptor 1E (P28566 whole entry): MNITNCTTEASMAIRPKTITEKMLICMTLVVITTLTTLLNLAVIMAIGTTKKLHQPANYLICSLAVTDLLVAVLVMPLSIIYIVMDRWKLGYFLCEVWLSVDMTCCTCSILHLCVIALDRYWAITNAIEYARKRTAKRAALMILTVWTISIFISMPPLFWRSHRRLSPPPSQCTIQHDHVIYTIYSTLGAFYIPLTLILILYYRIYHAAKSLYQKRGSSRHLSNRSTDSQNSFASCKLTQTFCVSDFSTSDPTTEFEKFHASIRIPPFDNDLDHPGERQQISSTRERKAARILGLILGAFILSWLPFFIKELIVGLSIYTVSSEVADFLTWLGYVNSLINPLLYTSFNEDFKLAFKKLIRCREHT

Compound: CC(C)c1nnc(NC(=O)c2nc(S(=O)(=O)Cc3ccccc3)ncc2Cl)s1
- EC50 (Protein RecA): 8120 nM (active)
- CC50 (Vero): 25900 nM (active)
- AC50 [1]: 6320 nM (active)
- AC50 [2]: 876 nM (active)
- IC50 (Genome polyprotein): > 100000 nM (active)
- AC50 [3]: 48000 nM (active)
- EC50 [4]: 6200 nM (active)
- IC50 [5]: 4470 nM (active)
- EC50 [6]: 36800 nM (active)

Compound: Cc1cc(C(=O)OC(C(=O)Nc2ccc(C)c(Cl)c2)c2ccccc2)c(C)o1 (configuration not stated)
- IC50 [7]: 13400 nM (not active)
- IC50 [8]: 11800 nM (not active)

Compound: O=C1C(=O)c2ccc(-c3ccccc3)cc2-c2ccccc21
- IC50 [9]: 316 nM (active)
- EC50 [10]: 1750 nM (active)
- EC50 (BJ [11]): 1230 nM (inconclusive)
- EC50 [12]: 2210 nM (active)
- AC50 (INS1): 1040 nM (active)
- EC50 (BJ [13]): 2750 nM (inconclusive)
- IC50 [14]: 2000 nM (active)
- EC50 (BJ [15]): 1020 nM (active)
- EC50 [16]: 1210 nM (active)
- EC50 [17]: 1160 nM (active)
- EC50 (BJ [18]): 1600 nM (active)
